{"source": "patent US10376552B2", "about": "“Memory improving composition comprising arillus longan, semen nelumbinis, poria and semen juglandis” (priority 2015, dated 2019)", "key": {"[1]": {"details": "clinical use as cholinesterase inhibitor; cited from earlier work"}, "[2]": {"tested_on": "scopolamine hydrobromide induced memory acquired disorder in mice", "assay": "Step-down test", "type": "in vivo, Kunming mice", "details": "0.1 mg/kg", "procedure": "(§1) Mice were randomly divided into 5 groups, namely, normal control group, model group, low dosage group, high dosage group, positive control drug Huperzine A group (0.1 mg/kg). The mice were intragastrically administered once daily (0.2 mL/10 g). After 30 consecutive days, except the normal control group, the memory acquired disorder model of mice was replicated respectively with 5 mg/kg of scopolamine hydrobromide, and the learning performance of mice was determined with the step-down test.\n(§2) In accordance with technical requirements including “technical specifications of health food inspection and evaluation”, the dosage was calculated by conversion of the intended clinical daily dosage on the basis of the body surface area. When orally administered to mice, low and high dosages were arranged for each sample, respectively, which correspond to about 10 and 20 times of intended daily dosage for adults. Namely: low dosage group (1.3 g/kg), high dosage group (2.6 g/kg).\n(§3) The time of the first jumping of mice (i.e., latency) and the times of jumping of mice within 5 minutes (i.e., errors times) were tested and recorded with jumping apparatus, and the latency and error times were used as the investigation indexes of the experiment.\n60 screened healthy adult Kunming mice were used, with body weight (20-24) g, male, 12 […] in each group. Mice were randomly divided into 5 groups, namely, normal control group (C), model group (M), low dosage group (1.3 g/kg), high dosage (2.6 g/kg), positive control drug Huperzine A group (0.1 mg/kg). Except that the normal control group and model group were intragastrically administered with 0.5% CMCNA (0.2 mL/10 g), other groups were intragastrically administered with corresponding drugs once daily for 30 consecutive days. Training was started 1 h after administration in the morning on day 30. Except the normal control group, the memory acquired disorder model of mice was replicated respectively with 2 mg/kg scopolamine hydrobromide 20 minutes before training. Each group was administered in parallel, and the learning performance of mice was determined by step-down test. […]\n(1) adaptive period: the animals were placed on the platform, at that time the electric fence was not energized, the latency of jumping down the platform was recorded, the animals were allowed to freely explore 10 s in the test box after jumping down the platform, and were then returned to the cage; […]\nas §3, with “The learning performance was tested after 24 h. The” for “The”"}, "[3]": {"tested_on": "scopolamine hydrobromide-induced mice memory acquired disorder model", "assay": "Morris water maze, space exploration test", "type": "in vivo", "details": "0.1 mg/kg", "procedure": "as §1, with “groups evenly,” for “groups,”, “scopolamine,” for “5 mg/kg of scopolamine hydrobromide,”, “Morris water maze test (scopolamine-induced orientation navigation and spatial memory experiment).” for “step-down test.”\nas §2\n(§4) As for the positive control drug Huperzine A, the clinical adult dosage is about 0.4 mg/day, and the dosage for mice is 0.06 mg/kg, which is calculated by conversion on the basis of the body surface area. 0.1 mg/kg was used in the present experiment.\n(§5) Morris water maze test was carried out according to the method in references. The orientation navigation test was started from the 25th day, and lasted for 4 consecutive days. The time of finding the platform of mice within 90 s (the escape latency), swimming distance, the swimming time proportion in the quadrant of the original platform, times of crossing the location of the original platform (i.e., shuttle times), and the time of first arrival at the original platform were recorded.\n(§6) Mice were randomly divided into 5 groups, namely, normal control group, model group, low dosage group (1.3 g/kg), high dosage group (2.6 g/kg), positive control drug Huperzine A group (0.1 mg/kg). The mice were intragastrically administered once daily (0.2 mL/10 g). After 30 consecutive days, except the normal control group, the memory acquired disorder model of mice was replicated respectively with scopolamine, and the learning performance of mice was determined with the Morris water maze test (scopolamine-induced orientation navigation and spatial memory experiment).\n(§7) In this example, respective groups of animals were adaptively fed for 3 days before intragastrical administration. The normal control group and model control group were intragastrically administered once daily with equal volume of 0.5% CMCNA, respectively. The administration was carried out with a volume of 0.2 mL/10 g body weight for 30 consecutive days. Morris water maze test was carried out according to the method in literatures. The orientation navigation test was started from the 25th day, and lasted for 4 days. The time of finding the platform of mice within 90 s (the escape latency), swimming distance, the swimming time proportion in the quadrant of the original platform, times of crossing the location of the original platform (i.e., shuttle times), and the time of first arrival at the original platform were recorded."}, "[4]": {"tested_on": "scopolamine memory acquired disorder model of mice", "assay": "Morris water maze, orientation navigation test", "type": "in vivo", "details": "0.1 mg/kg", "procedure": "as §6, with “groups evenly,” for “groups,”, “group,” for “group (1.3 g/kg),”, “group,” for “group (2.6 g/kg),”\nas §2, §4, §5, §6, §7"}}, "data": [{"molecule": "C/C=C1\\[C@H]2C=C(C)C[C@]1(N)c1ccc(=O)[nH]c1C2", "note": "[Huperzine A]", "values": [{"measurement": "side-effects after ingestion", "setting": "[1]", "result": "nausea, dizziness, sweating, abdominal pain, and blurred vision"}, {"measurement": "Latency", "setting": "[2]", "result": "146.20 ± 99.97", "unit": "s"}, {"measurement": "error times compared with the model group", "setting": "[2]; p<0.05", "result": "significantly reduced"}, {"measurement": "latency compared with the model group", "setting": "[2]; p<0.05", "result": "significantly prolonged"}, {"measurement": "Error times", "setting": "[2]; within 5 minutes", "result": "1.00 ± 0.82"}, {"measurement": "Shuttle times", "setting": "[3]", "result": "2.2 ± 0.5"}, {"measurement": "Time proportion of crossing the original quadrant", "setting": "[3]", "result": "22.6 ± 7.9", "unit": "%"}, {"measurement": "time of first arrival at the platform", "setting": "[3]", "result": "27.0 ± 12.1", "unit": "s"}, {"measurement": "time of first arrival at the platform", "setting": "[3]; p<0.05", "result": "significantly prolonging"}, {"measurement": "times of crossing the location of the original platform", "setting": "[3]; p<0.05", "result": "significantly decreased"}, {"measurement": "swimming distance", "setting": "[4]; Day 1", "result": "892.9 ± 226.6", "unit": "cm"}, {"measurement": "swimming latency", "setting": "[4]; Day 1", "result": "68.3 ± 15.6", "unit": "s"}, {"measurement": "swimming distance", "setting": "[4]; Day 2", "result": "747.2 ± 93.5", "unit": "cm"}, {"measurement": "swimming latency", "setting": "[4]; Day 2", "result": "59.1 ± 13.8", "unit": "s"}, {"measurement": "swimming distance", "setting": "[4]; Day 3", "result": "683.3 ± 112.8", "unit": "cm"}, {"measurement": "swimming latency", "setting": "[4]; Day 3", "result": "56.3 ± 13.1", "unit": "s"}, {"measurement": "swimming distance", "setting": "[4]; Day 4", "result": "669.6 ± 128.3", "unit": "cm"}, {"measurement": "swimming latency", "setting": "[4]; Day 4", "result": "48.8 ± 11.1", "unit": "s"}]}]}
